Test results reported in ChEMBL document CHEMBL6153122, “Antimycobacterial Activities of the Zanthoxylum leprieurii Metabolite Adubangoamide and Non-Natural Fagaramide Analogues” (2025).
Converted amounts (≈) assume the structure as drawn.

Legend:
Type in all cases: functional
[1] = test system: Mycobacterium tuberculosis; experiment: Antimycobacterial activity against drug-susceptible Mycobacterium tuberculosis H37Rv by microplate Alamar blue assay
[2] = test system: Mycobacterium tuberculosis; experiment: Potency index, ratio of trans-fagaramide MIC to test compound MIC for antimycobacterial activity against drug-susceptible Mycobacterium tuberculosis H37Rv
[3] = test system: Mycobacterium tuberculosis; experiment: Antimycobacterial activity against drug-susceptible Mycobacterium tuberculosis H37Rv

Structure (SMILES) | MIC [1] [µM] | Ratio [2] | MIC [3] [µM]
O=C(/C=C/c1ccc2c(c1)OCO2)NCc1ccccc1 | 167 (≈ 47 µg/mL) | – | –
CN(C)c1ccc(CNC(=O)/C=C/c2ccc3c(c2)OCO3)cc1 | 6 (≈ 1.95 µg/mL) | 6 | –
CC(C)=CCOc1ccc(/C=C/C(=O)NCC(C)C)cc1 | 10 (≈ 2.87 µg/mL) | 3 | –
O=C(/C=C/c1ccc2c(c1)OCO2)NCc1ccc(N2CCC(C(F)(F)F)CC2)cc1 | 4.5 (≈ 1.95 µg/mL) | 6 | –
O=C(/C=C/c1ccc2c(c1)OCO2)NCc1ccccc1Cl | 100 (≈ 31.6 µg/mL) | – | –
O=C(/C=C/c1ccc2c(c1)OCO2)NCc1ccc(C(F)(F)F)cc1F | 21 (≈ 7.71 µg/mL) | – | –
O=C(/C=C/c1ccc2c(c1)OCO2)NCc1cc(F)cc(F)c1 | 6.1 (≈ 1.94 µg/mL) | 6 | –
O=C(/C=C/c1ccc2c(c1)OCO2)NCc1ccc(N2CCC(c3ccc(F)cc3)CC2)cc1 | 17 (≈ 7.8 µg/mL) | – | –
COc1cccc(CNC(=O)/C=C/c2ccc3c(c2)OCO3)c1 | 200 (≈ 62.3 µg/mL) | – | –
CC(C)CNC(=O)/C=C/c1ccc2c(c1)OCO2 [FOGARAMIDE] | – | – | 32 (≈ 7.91 µg/mL)
CO[C@H]1/C=C/O[C@@]2(C)Oc3c(C)c(O)c4c(O)c(c(/C=N/N5CCN(C)CC5)c(O)c4c3C2=O)NC(=O)/C(C)=C\C=C\[C@H](C)[C@H](O)[C@@H](C)[C@@H](O)[C@@H](C)[C@H](OC(C)=O)[C@@H]1C [RIFAMPIN] | 0.3 (≈ 0.247 µg/mL) | – | –
